Source: patent US20250188085A1, “COMPOSITIONS AND METHODS FOR INHIBITION OF RAS” (THERAS, INC., priority 2022, published 2025)
Where two headings read alike, the source gives them in different places.

Columns and labels:
[1] = biological target: T1, GppNHp-loaded KRAS4b (amino acids 1-169) G12C/C118S protein (Homo sapiens, UniProt P01116, C118S/G12C); experiment: Covalent cysteine 12 modification by MALDI-TOF MS, GppNHp-loaded KRAS G12C; type: binding; settings: 15 minutes reaction time point
T1 construct: KRAS4b (amino acids 1-169) G12C/C118S protein; made in house
Procedure: (§1) Reaction: 1 μM of GppNHp-, GTP-, or GDP-loaded KRAS4b (amino acids 1-169) G12C/C118S protein (produced in-house by Protein Expression Laboratory, FNLCR/Leidos Biomed) in 20 mM 4-(2-hydroxyethyl)-1-piperazineethanesulfonic acid (HEPES) buffer containing 150 mM NaCl, 1 mM MgCl2, pH 7.3 was prepared freshly before assay. Ten-μL aliquots of protein were dispensed onto low volume 384-well plate, then 375 nL DMSO, and 25 nL of tested compounds from 5 mM DMSO stocks were added to appropriate wells using ECHO 555 acoustic liquid handler (Labcyte Inc.). For each reaction/assay, three blanks were prepared by mixing 10 μL of protein solution with 400 nL DMSO. The contents of the wells were carefully mixed by aspiration, and then each plate was sealed with an adhesive cover, centrifuged at 2000 g for 1 minute, and kept in the dark at room temperature until 5 min, 15 min, 30 min, or 2 h collections.
(§2) Target pretreatment: Before each assay MALDI target (Bruker MPT 384 ground steel BC) was pre-treated by pipetting on each spot 0.75 μL of saturated sinapinic acid in acetonitrile (ACN).
(§3) Sample preparation: At collection time point, 2 μL of reaction mixtures were pipetted out into 20 μL MALDI matrix solution (saturated solution of sinapinic acid in 1:1 ACN:water solution containing 0.75% trifluoroacetic acid (TFA)) deposited on 384 well polypropylene plate. Resulting solution was mixed by aspiration, centrifuged at 2000 g for 1 minute, then 1 μL aliquots were dispensed on pre-treated MALDI target using Beckman Coulter Biomek FXP 96/384-Span-8 Laboratory Automation Workstation. Finally, the MALDI target was dried under mild vacuum to produce spots with fine crystalline structure.
(§4) Measurements: MALDI-TOF measurements were performed on a Bruker Daltonics rapiflex Tissuetyper TOF-TOF mass spectrometer using linear mode and mass range from 18.6 to 21.6 kDa. Detector gain was set to 3.3× (483 V), sample rate to 5 GS/s, real time smoothing to medium (175 MHz), laser smart beam pattern was set to: “MS Thin Layer M5”, and the laser frequency was 10000 Hz. Spectra were automatically collected using custom Auto Xecute method. Laser power was auto adjusted using fuzzy control. The peak selection range was set to be between 19000 and 21500 Da. Peak evaluation uses half width parameter set to be smaller than 40 Da for processed spectrograms (centroid peak detection; smoothed by SavitzkyGolay algorithm using 7 m/z width and 2 cycles; baseline was subtracted using median algorithm with flatness 1 and median level 0.01). Fuzzy control used Proteins/Oligonucleotides protocol with minimum half width 1/10 times above threshold. Up to 40000 satisfactory shots were collected in 10000 shot steps. Dynamic termination was implemented to finish data collection when peak signal/noise ratio was reaching value of 50.
(§5) Spectra processing: Spectra were smoothed by SavitzkyGolay algorithm using 7 m/z width and three cycles. Centroid peak detection algorithm was used with signal to noise threshold set to 6, relative intensity threshold 4%, peak width 10 m/z and median baseline subtraction using flatness of 1 and median level of 0.01. Peak intensity and area under the peak were evaluated and recorded for all peaks between 19,300 Da and 21,550 Da.
(§6) Calculation of percent modification: Percent modification was calculated as a ratio of peak height for protein modified by compound to sum of peak height of remaining protein plus peak height for protein modified by compound. If multiple modifications were observed each was calculated as a ratio of peak height for given modification versus sum of peak heights for all observed protein species. Data reported in Table 5 are from 15 minutes reaction time point.

[2] = biological target: T2, GDP-loaded KRAS4b (amino acids 1-169) G12C/C118S protein (Homo sapiens, UniProt P01116, C118S/G12C); experiment: Covalent cysteine 12 modification by MALDI-TOF MS, GDP-loaded KRAS G12C; type: binding; settings: 15 minutes reaction time point
T2 construct: KRAS4b (amino acids 1-169) G12C/C118S protein; made in house
Procedure: as §1, §2, §3, §4, §5, §6

[3] = biological target: T3, Avi-KRAS G12C (1-169) GppNHp/RAF1 RBD-3×FLAG (52-151) (Homo sapiens, UniProt P01116, G12C); experiment: Raf1 RBD-KRAS G12C-GppNHp disruption (protein:protein interaction HTRF assay); type: biochemical
T3 construct: Avi-KRAS G12C (1-169) GppNHp/RAF1 RBD-3×FLAG (52-151)
Procedure: A protein: protein (PPI) interaction Homogeneous Time Resolved Fluorescence (HTRF) assay was used to determine the effectiveness of compounds of the present disclosure in disrupting KRAS G12C protein and effector (RAF1 or PIK3CA) binding.
The HTRF assay used the following reagents and proteins: 50 nM Avi-KRAS G12C Q25A (1-169) GppNHp/3×FLAG-PI3K CA (157-299); 50 nM Avi-KRAS G12C (1-169) GppNHp/RAF1 RBD-3×FLAG (52-151); 35 nM Avi-PI3K RBD-3×FLAG; Assay Buffer: 50 mM Tris pH 7.5, 100 mM NaCl, 5 mM MgCl2, 0.1% BSA, 0.01% Tween 20, 10% DMSO; Bead Buffer: 50 mM Tris pH 7.5, 0.01% Tween 20; Assay volume: 20 μL (384 well plate-low volume format); and Compound titration: 30-0.02 μM, 3× dilution series.
The HTRF assay employed the following protocol:
Compounds were dispensed in assay plate (384-well, Grenier Bione #784075) using Echo (model 555) with dose response settings: 200 nL final volume, titration from 100 μM as a 10-point dilution series. KRAS proteins were prepared in assay buffer, and dispensed on plates, 5 μL per well, then incubated for 1 h at room temperature, with 700 rpm shaking. RAF1 RBD and PI3K RBD CA were prepared in assay buffer, dispensed onto plates, 5 μL per well, and then incubated for 1 h at room temperature, with 700 rpm shaking. Reagent mix was then prepared and dispensed on plates, 10 μL per well, and then incubated for 1 h at room temperature, with 700 rpm shaking.
Plates were analyzed on an Envision plate reader using the following setting: Excitation 320 nm, Bandwidth 75 nm; Emission 615 nm, Bandwidth 85 nm; Gain 100%; Flashes 100; Lag 60 μs. Data was reported as percentage of activity, with DMSO as 100%. Data was plotted and analyzed using Prism 8.

[4] = test system: pERK in NCI-H358 cells; experiment: Cell-based pERK HTRF assay; settings: 30 min incubation, read-out: pERK in NCI-H358 cell inhibition IC50
Procedure: pERK assays (Perkin Elmer) were used to determine the effectiveness of compounds of the present disclosure in disrupting KRAS G12C protein/effector signaling in cells.
On Day 1, cells (NCI-H358) were seeded into 96-well plates at 4×10^4 cells/well in complete growth media (RPMI, 10% FBS).
On Day 2, cells were treated with compounds at 0.25% DMSO. The source plate was created with compounds diluted in media at 5-fold the final assay concentration. The compounds were run in a 9-point concentration curve starting at 75 μM, with a 3-fold dilution between concentrations. 20 μL was transferred onto the cell plates (final volume in wells was 100 μL). Plates were harvested after 30 min incubation by aspirating media and adding kit-supplied 1× supplemented lysis buffer to all wells (75 μl per well). Plates were then placed on a plate shaker and incubated at 850 rpm for an additional 30 min.
Antibody mixture solution was prepared by diluting aliquoted d2 and Eu Cryptate antibodies 1:20 in kit supplied detection buffer, then mixed the diluted antibodies solutions (1:1 v:v). 4 μL of this solution was then added to a 384-well detection plate (Perkin Elmer; 6008230).
Samples were homogenized by pipetting up and down and then transferred (16 μL of cell lysates) from the 96-well cell culture plate to two wells of the HTRF 384-well detection plate containing the antibody solution. Plates were centrifuged (524 g for Imin) and allowed to incubate between 4 and 24 h at room temperature. Maximum signal is reached after 4 h incubation time and remains stable over a period of 24 hours. Therefore, readings can be made between 4 and 24 h of incubation. Plates were centrifuged again (524 g for Imin) and analyzed on the En Vision plate reader using the following settings: Excitation 320 nm, Bandwidth 75 nm; Emission 615 nm, Bandwidth 85 nm; Gain 100%; Flashes 100; Lag 60 μs.

SMILES	GppNHp-KRAS G12C percent of modification [1]	GDP-KRAS G12C percent of modification [2]	IC50 [3]	IC50 [4]	IC50 ([4]; Homo sapiens, NCI-H358, 0.5 h)
C=CC(=O)N1CC[C@@H](Oc2nc(OC[C@@H]3CC4(CC4)CN3C)nc3c(F)c(-c4ccc(F)c5sc(N)nc45)c(C(F)(F)F)cc23)C1 (atropisomer, axis not shown) [Compound 24]	B (50≤percent of modification <70%)	A (percent of modification ≥70%)	≤ 500 nM	≤ 100 nM	–
C=CC(=O)N1CC[C@@H](Oc2nc(OC[C@@H]3CC4(CC4)CN3C)nc3c(F)c(-c4ccc(F)c5sc(N)nc45)c(C(F)(F)F)cc23)C1 (atropisomer, axis not shown) [Compound 25]	D (percent of modification <10%)	D (percent of modification <10%)	5000 to 20000 nM	> 1000 nM	–
C=CC(=O)N1C[C@@H](C)[C@@H](Oc2nc(OC[C@@]34CCCN3C[C@H](F)C4)nc3c(F)c(-c4ccc(F)c5sc(N)nc45)c(C(F)(F)F)cc23)C1 (atropisomer, axis not shown) [Compound 27]	C (10%≤modification <50%)	A (percent of modification ≥70%)	≤ 500 nM	–	≤ 100 nM
C=CC(=O)N1C[C@H](Oc2nc(OC[C@@]34CCCN3C[C@H](F)C4)nc3c(F)c(-c4ccc(F)c5sc(N)nc45)c(C(F)(F)F)cc23)C[C@@H]1C (atropisomer, axis not shown) [Compound 32]	C (10%≤modification <50%)	A (percent of modification ≥70%)	≤ 500 nM	≤ 100 nM	–
C=CC(=O)N1C[C@H](Oc2nc(OC[C@@]34CCCN3C[C@H](F)C4)nc3c(F)c(-c4ccc(F)c5sc(N)nc45)c(C(F)(F)F)cc23)C[C@@H]1C (atropisomer, axis not shown) [Compound 33]	D (percent of modification <10%)	D (percent of modification <10%)	5000 to 20000 nM	> 1000 nM	–
C=CC(=O)N1CC[C@@H](Oc2nc(OC[C@@]34CCCN3C[C@H](F)C4)nc3c(F)c(-c4ccc(F)c5sc(N)nc45)c(C(F)(F)F)cc23)[C@@H]1C (atropisomer, axis not shown) [Compound 41]	C (10%≤modification <50%)	A (percent of modification ≥70%)	≤ 500 nM	100 to 1000 nM	–
C=CC(=O)N1CC[C@@H](Oc2nc(OC[C@@]34CCCN3C[C@H](F)C4)nc3c(F)c(-c4ccc(F)c5sc(N)nc45)c(C(F)(F)F)cc23)[C@@H]1C (atropisomer, axis not shown) [Compound 42]	D (percent of modification <10%)	D (percent of modification <10%)	> 20000 nM	> 1000 nM	–

Results, then the compound that gave them:

GppNHp-KRAS G12C percent of modification [1]	GDP-KRAS G12C percent of modification [2]	IC50 [3]	IC50 [4]	IC50 ([4]; Homo sapiens, NCI-H358, 0.5 h)	SMILES
A (percent of modification ≥70%)	A (percent of modification ≥70%)	≤ 500 nM	–	≤ 100 nM	C=CC(=O)N1C[C@H](Oc2nc(OC[C@@]34CCCN3C[C@H](F)C4)nc3c(F)c(-c4ccc(F)c5sc(N)nc45)c(C(F)(F)F)cc23)C[C@H]1C (atropisomer, axis not shown) [Compound 37]
D (percent of modification <10%)	D (percent of modification <10%)	500 to 5000 nM	100 to 1000 nM	–	C=CC(=O)N1C[C@H](Oc2nc(OC[C@@]34CCCN3C[C@H](F)C4)nc3c(F)c(-c4ccc(F)c5sc(N)nc45)c(C(F)(F)F)cc23)C[C@H]1C (atropisomer, axis not shown) [Compound 38]
C (10%≤modification <50%)	C (10%≤modification <50%)	500 to 5000 nM	100 to 1000 nM	–	C=CC(=O)N1C[C@@H](C)[C@@H](Oc2nc(OC[C@@]34CCCN3C[C@H](F)C4)nc3c(F)c(-c4ccc(F)c5sc(N)nc45)c(C(F)(F)F)cc23)C1 (atropisomer, axis not shown) [Compound 39]
A (percent of modification ≥70%)	A (percent of modification ≥70%)	≤ 500 nM	–	≤ 100 nM	C=CC(=O)N1CC[C@@H](Oc2nc(OC[C@@]34CCCN3C[C@H](F)C4)nc3c(F)c(-c4ccc(F)c5sc(N)nc45)c(C(F)(F)F)cc23)C1 (single isomer, unassigned) [Compound 11]
